Results: paper PMC7284125, “Identification of annotated bioactive molecules that impair motility of the blood fluke Schistosoma mansoni” (International Journal for Parasitology: Drugs and Drug …, 2020)

Each molecule was assayed on S. mansoni schistosomulae (assay: Motility assay on schistosomulae (pixel displacement, relative to DMSO control)). Details: schistosomulae, 1h exposure, read at D1, 10 µM.
Assay type: cell-based, Schistosoma mansoni
Procedure: Puerto Rican strain Biomphalaria glabrata snails infected with S. mansoni were kindly provided by Dr. Fred Lewis (Biomedical Research Institute and BEI Resources, MD, USA). Schistosomulae were obtained by exposing six to eight weeks-old snails to continuous light for 2 h at 32 °C. The resulting suspension of cercaria was then mechanically transformed as described ([Lewis, 2001]) and cultured in Opti-MEM/antibiotics (Thermo Fisher Scientific, Waltham, MA) containing 100 μg/mL streptomycin and 100 units/ml penicillin supplemented with 5% fetal bovine serum (FBS; Thermo Fisher). Parasite cultures were incubated at 37 °C with 5% CO2 for at least 10 days with no apparent loss of viability. At this point, animals with internal dark granulations and with no observable body contraction/relaxation cycles were considered dead.
(§1) Schistosomulae (200/well) and adult parasites (unpaired worms) were maintained in 300 μL OPTI-MEM with 5% dialyzed FBS (without antibiotics) and exposed to compounds at 1 and 10 μM for 24 h. A kinetic assay consisting of 1, 3, 6 and 12 h incubation times was performed on selected hits by motility monitoring using a stereo microscope (SMZ1270, Nikon) for adults and an inverted microscope for schistosomulae (eclipse TE2000-U, Nikon) connected to a monochrome camera (DS-Qi2, Nikon) for image acquisition. Images were recorded at a rate of 10 frames/s for a period of 1 min and videos were analyzed using ImageJ software (version 1.41, NIH, USA). Parasite movement quantification and data analysis protocols were applied using the pixel displacement method ([Patocka et al., 2014]; [Rashid et al., 2015]) and compared to control parasites treated with DMSO. Parasites were then washed several times in Opti-MEM, 5% FBS and incubated up to an additional three days (schistosomulae) or five days (adult worms) at 37 °C, 5% CO2 and motility was recorded as described above.
Work on c1ccc(CNc2nc(NCc3ccccc3)c3ccccc3n2)cc1 [DBeQ] yielded a Fractional motility of -0.96.
Molecule HO-3867 has a Fractional motility of 1.63.
With CCc1ccc(OCc2ccccc2C(=O)Nc2ccc3nc(C)cc(N)c3c2)cc1 [JTC-801] the Fractional motility was -0.51.
CCOC(=O)CCNc1cc(N2CCc3ccccc3CC2)nc(-c2ccccn2)n1 [GSK J4] showed a Fractional motility of 0.43.

Same assay, conditions: schistosomulae, 1h exposure, read at D5, 10 µM
c1ccc(CNc2nc(NCc3ccccc3)c3ccccc3n2)cc1 [DBeQ] gave a Fractional motility of -0.93.
For HO-3867, the Fractional motility was -0.56.
CCOC(=O)CCNc1cc(N2CCc3ccccc3CC2)nc(-c2ccccn2)n1 [GSK J4] was tested, and the Fractional motility was 0.28.

Same assay, conditions: schistosomulae, 3h exposure, read at D1, 10 µM
Work on c1ccc(CNc2nc(NCc3ccccc3)c3ccccc3n2)cc1 [DBeQ] yielded a Fractional motility of 1.19.
Molecule CCc1ccc(OCc2ccccc2C(=O)Nc2ccc3nc(C)cc(N)c3c2)cc1 [JTC-801] has a Fractional motility of -0.95.
CCOC(=O)CCNc1cc(N2CCc3ccccc3CC2)nc(-c2ccccn2)n1 [GSK J4] showed a Fractional motility of -0.55.

Same assay, conditions: schistosomulae, 3h exposure, read at D5, 10 µM
Work on c1ccc(CNc2nc(NCc3ccccc3)c3ccccc3n2)cc1 [DBeQ] yielded a Fractional motility of -0.88.
In the case of HO-3867, the Fractional motility is reported as -0.41.
CCc1ccc(OCc2ccccc2C(=O)Nc2ccc3nc(C)cc(N)c3c2)cc1 [JTC-801] gave a Fractional motility of -0.09.
CCOC(=O)CCNc1cc(N2CCc3ccccc3CC2)nc(-c2ccccn2)n1 [GSK J4] gave a Fractional motility of -0.56.

Same assay, conditions: schistosomulae, 6h exposure, read at D1, 10 µM
Molecule c1ccc(CNc2nc(NCc3ccccc3)c3ccccc3n2)cc1 [DBeQ] has a Fractional motility of 0.41.
For HO-3867, the Fractional motility was -0.37.
With CCc1ccc(OCc2ccccc2C(=O)Nc2ccc3nc(C)cc(N)c3c2)cc1 [JTC-801] the Fractional motility was -0.74.
CCOC(=O)CCNc1cc(N2CCc3ccccc3CC2)nc(-c2ccccn2)n1 [GSK J4] was tested, and the Fractional motility was -0.78.

Same assay, conditions: schistosomulae, 6h exposure, read at D5, 10 µM
In the case of c1ccc(CNc2nc(NCc3ccccc3)c3ccccc3n2)cc1 [DBeQ], the Fractional motility is reported as -0.13.
HO-3867 was tested, and the Fractional motility was -0.0245.
For CCc1ccc(OCc2ccccc2C(=O)Nc2ccc3nc(C)cc(N)c3c2)cc1 [JTC-801], the Fractional motility was -0.71.
In the case of CCOC(=O)CCNc1cc(N2CCc3ccccc3CC2)nc(-c2ccccn2)n1 [GSK J4], the Fractional motility is reported as -0.70.

Same assay, conditions: schistosomulae, secondary screen, 24h exposure, read at D1, 1 µM
Work on c1ccc(CNc2nc(NCc3ccccc3)c3ccccc3n2)cc1 [DBeQ] yielded a Fractional motility of 7.69.
HO-3867 gave a Fractional motility of 1.34.
With CCc1ccc(OCc2ccccc2C(=O)Nc2ccc3nc(C)cc(N)c3c2)cc1 [JTC-801] the Fractional motility was 3.71.
In the case of CCOC(=O)CCNc1cc(N2CCc3ccccc3CC2)nc(-c2ccccn2)n1 [GSK J4], the Fractional motility is reported as 0.46.

Same assay, conditions: schistosomulae, secondary screen, 24h exposure, read at D1, 10 µM
c1ccc(CNc2nc(NCc3ccccc3)c3ccccc3n2)cc1 [DBeQ] showed a Fractional motility of 6.82.
Work on HO-3867 yielded a Fractional motility of 2.56.
CCc1ccc(OCc2ccccc2C(=O)Nc2ccc3nc(C)cc(N)c3c2)cc1 [JTC-801] gave a Fractional motility of -1.00.
In the case of CCOC(=O)CCNc1cc(N2CCc3ccccc3CC2)nc(-c2ccccn2)n1 [GSK J4], the Fractional motility is reported as -0.85.

Same assay, conditions: schistosomulae, secondary screen, 24h exposure, read at D5, 1 µM
In the case of c1ccc(CNc2nc(NCc3ccccc3)c3ccccc3n2)cc1 [DBeQ], the Fractional motility is reported as -0.29.
HO-3867 was tested, and the Fractional motility was 1.27.
With CCc1ccc(OCc2ccccc2C(=O)Nc2ccc3nc(C)cc(N)c3c2)cc1 [JTC-801] the Fractional motility was 1.04.
Molecule CCOC(=O)CCNc1cc(N2CCc3ccccc3CC2)nc(-c2ccccn2)n1 [GSK J4] has a Fractional motility of 0.88.

Same assay, conditions: schistosomulae, secondary screen, 24h exposure, read at D5, 10 µM
c1ccc(CNc2nc(NCc3ccccc3)c3ccccc3n2)cc1 [DBeQ] showed a Fractional motility of 4.98.
Molecule HO-3867 has a Fractional motility of -0.58.
CCc1ccc(OCc2ccccc2C(=O)Nc2ccc3nc(C)cc(N)c3c2)cc1 [JTC-801] gave a Fractional motility of -0.99.
With CCOC(=O)CCNc1cc(N2CCc3ccccc3CC2)nc(-c2ccccn2)n1 [GSK J4] the Fractional motility was -1.00.

What follows are molecules tested on S. mansoni schistosomulae (assay: Phenotypic primary screen assay on schistosomulae (phenotype; viability by methylene blue dye exclusion)). Details: 24 h incubation, five days.
Assay type: cell-based, Schistosoma mansoni
Procedure: Puerto Rican strain Biomphalaria glabrata snails infected with S. mansoni were kindly provided by Dr. Fred Lewis (Biomedical Research Institute and BEI Resources, MD, USA). Schistosomulae were obtained by exposing six to eight weeks-old snails to continuous light for 2 h at 32 °C. […] At this point, animals with internal dark granulations and with no observable body contraction/relaxation cycles were considered dead.
Schistosomulae were monitored under a stereo microscope (SMZ1270, Nikon). Phenotypic observations were made by analyzing schistosomulae, 24 h after drug addition to assess any immediate effect and five days post-compound exposure to observe long-term impacts on both the movement and overall body shape in comparison to control animals exposed to DMSO only.
CCc1ccc(OCc2ccccc2C(=O)Nc2ccc3nc(C)cc(N)c3c2)cc1 [JTC-801] was tested, and the “effect on viability of schistosomulae in words” value was “lethal”.

Same assay, conditions: three-day-old schistosomulae, 10 μM, 24 h; calculated 5 days post compound exposure
c1ccc(CNc2nc(NCc3ccccc3)c3ccccc3n2)cc1 [DBeQ] was tested, and the “Viability (%)” value was 15,5%.
For HO-3867, the “Viability (%)” value was 42,5%.
For CCc1ccc(OCc2ccccc2C(=O)Nc2ccc3nc(C)cc(N)c3c2)cc1 [JTC-801], the “Viability (%)” value was 0%.
CCOC(=O)CCNc1cc(N2CCc3ccccc3CC2)nc(-c2ccccn2)n1 [GSK J4] was tested, and the “Viability (%)” value was 5%.

Same assay, conditions: three-day-old schistosomulae, 10 μM, 24 h; estimated 5 days post compound exposure
For c1ccc(CNc2nc(NCc3ccccc3)c3ccccc3n2)cc1 [DBeQ], the Phenotype was “dark, granulated”.
For HO-3867, the Phenotype was “dark, granulated”.
CCc1ccc(OCc2ccccc2C(=O)Nc2ccc3nc(C)cc(N)c3c2)cc1 [JTC-801] was tested, and the Phenotype was “big, granulated”.
With CCOC(=O)CCNc1cc(N2CCc3ccccc3CC2)nc(-c2ccccn2)n1 [GSK J4] the Phenotype was “big, dark, granulated”.

What follows are molecules tested on S. mansoni adult worms (assay: Motility assay on adult parasites (pixel displacement, relative to DMSO control)). Details: adults, 10 μM, long-term after washout.
Assay type: cell-based, Schistosoma mansoni
Procedure: Adult parasites were collected from 40 day-old female CD1 mice (Charles River) previously inoculated by the tail infection method ([Lewis, 2001]). Six weeks post-infection, mice were sacrificed, and adult worms extracted after perfusion of in the hepatic portal vein and mesenteric venules ([Lewis, 2001]). Animal procedures were reviewed and approved by the Facility Animal Care Committee of McGill University (Protocol No. 3346) and were conducted in accordance with the guidelines of the Canadian Council on Animal Care.
as §1
c1ccc(CNc2nc(NCc3ccccc3)c3ccccc3n2)cc1 [DBeQ] was tested, and the “motility phenotype in words” value was “severely paralyzed adults”.
In the case of HO-3867, the “motility phenotype in words” value is reported as “Significant hypomotility”.
For CCOC(=O)CCNc1cc(N2CCc3ccccc3CC2)nc(-c2ccccn2)n1 [GSK J4], the “motility phenotype in words” value was “Significant hypomotility”.

Same assay, conditions: secondary screen, 10 μM, D1, Female adult worms
For c1ccc(CNc2nc(NCc3ccccc3)c3ccccc3n2)cc1 [DBeQ], the Fractional motility was 0.29.
For HO-3867, the Fractional motility was 0.32.
CCc1ccc(OCc2ccccc2C(=O)Nc2ccc3nc(C)cc(N)c3c2)cc1 [JTC-801] was tested, and the Fractional motility was 1.22.
CCOC(=O)CCNc1cc(N2CCc3ccccc3CC2)nc(-c2ccccn2)n1 [GSK J4] showed a Fractional motility of -0.0455.

Same assay, conditions: secondary screen, 10 μM, D1, Male adult worms
c1ccc(CNc2nc(NCc3ccccc3)c3ccccc3n2)cc1 [DBeQ] gave a Fractional motility of 0.29.
In the case of HO-3867, the Fractional motility is reported as 0.13.
Molecule CCc1ccc(OCc2ccccc2C(=O)Nc2ccc3nc(C)cc(N)c3c2)cc1 [JTC-801] has a Fractional motility of 4.15.
CCOC(=O)CCNc1cc(N2CCc3ccccc3CC2)nc(-c2ccccn2)n1 [GSK J4] showed a Fractional motility of -0.11.

Same assay, conditions: secondary screen, 10 μM, D5, Female adult worms
For c1ccc(CNc2nc(NCc3ccccc3)c3ccccc3n2)cc1 [DBeQ], the Fractional motility was -0.91.
HO-3867 gave a Fractional motility of -0.89.
In the case of CCOC(=O)CCNc1cc(N2CCc3ccccc3CC2)nc(-c2ccccn2)n1 [GSK J4], the Fractional motility is reported as -0.64.

Same assay, conditions: secondary screen, 10 μM, D5, Male adult worms
For c1ccc(CNc2nc(NCc3ccccc3)c3ccccc3n2)cc1 [DBeQ], the Fractional motility was -0.65.
Molecule HO-3867 has a Fractional motility of -0.84.
With CCc1ccc(OCc2ccccc2C(=O)Nc2ccc3nc(C)cc(N)c3c2)cc1 [JTC-801] the Fractional motility was -0.56.
Work on CCOC(=O)CCNc1cc(N2CCc3ccccc3CC2)nc(-c2ccccn2)n1 [GSK J4] yielded a Fractional motility of -0.63.
